{"source": "patent US11780849B2", "about": "“Imino sulfanone inhibitors of ENPP1” (Volastra Therapeutics, Inc., priority 2020, dated 2023)", "note": "pKi: −log10 of the molar value."}
{"target": "ENPP-1 ECD (Homo sapiens (Human), UniProt P22413)", "sequence (P22413 98-925)": "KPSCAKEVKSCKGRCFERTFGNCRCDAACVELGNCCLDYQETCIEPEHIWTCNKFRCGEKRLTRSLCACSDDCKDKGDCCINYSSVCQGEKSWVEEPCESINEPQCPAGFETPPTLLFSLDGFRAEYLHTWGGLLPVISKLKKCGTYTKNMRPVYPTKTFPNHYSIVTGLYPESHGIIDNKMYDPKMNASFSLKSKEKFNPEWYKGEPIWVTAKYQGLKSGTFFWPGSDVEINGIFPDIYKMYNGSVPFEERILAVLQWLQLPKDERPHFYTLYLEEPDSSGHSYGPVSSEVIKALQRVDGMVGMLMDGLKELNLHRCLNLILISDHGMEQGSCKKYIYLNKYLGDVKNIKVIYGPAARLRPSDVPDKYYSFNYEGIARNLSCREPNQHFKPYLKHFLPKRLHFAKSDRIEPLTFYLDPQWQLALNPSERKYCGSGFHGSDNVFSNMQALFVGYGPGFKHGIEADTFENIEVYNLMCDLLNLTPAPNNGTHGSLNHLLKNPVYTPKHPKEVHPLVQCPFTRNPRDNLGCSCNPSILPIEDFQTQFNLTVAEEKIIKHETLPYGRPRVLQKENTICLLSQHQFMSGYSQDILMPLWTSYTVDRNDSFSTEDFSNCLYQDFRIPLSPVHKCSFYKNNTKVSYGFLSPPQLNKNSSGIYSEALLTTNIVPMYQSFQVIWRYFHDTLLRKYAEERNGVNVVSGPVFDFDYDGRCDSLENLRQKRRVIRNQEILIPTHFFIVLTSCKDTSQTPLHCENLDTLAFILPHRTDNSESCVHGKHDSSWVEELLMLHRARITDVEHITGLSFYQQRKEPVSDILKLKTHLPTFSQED", "test": "Assay 2: inhibition of ENPP1 hydrolysis of 2′,3′-cGAMP (AMP-Glo, […] enzyme)", "details": "Assay 2 (KI), ENPP1 hydrolysis of 2′,3′-cGAMP, AMP-Glo, […] ENPP-1, 24 μM cGAMP", "description": "Assay 2: Compared to the conditions in Assay 1, this assay has a larger dynamic range and ensures the system is under steady-state conditions by reducing the enzyme concentration in the assay.\nTest compounds were plated in a 3× dilution scheme in a 384 well plate. […] AMP Detection solution (10 μL) was added to each well, the plate centrifuged and incubated for 60 min."}
{"smiles": "COc1ccc2c(-c3ccc4c(c3)CN(S(C)(=N)=O)CC4)ccnc2n1", "note": "(stereo not drawn) [Compound 163, imino[7-(7-methoxy-1,8-naphthyridin-4-yl)-1,2,3,4-tetrahydroisoquinolin-2-yl]methyl-λ^6-sulfanone]", "pKi": "6.52 to 8.52"}
{"smiles": "COc1cc2ncnc(OCC3CCN(S(C)(=N)=O)CC3)c2cc1OC", "note": "(stereo not drawn) [Compound 164, (4-{[(6,7-dimethoxyquinazolin-4-yl)oxy]methyl}piperidin-1-yl)(imino)methyl-λ^6-sulfanone]", "pKi": "6.52 to 8.52"}
{"target": "ENPP-1 ECD (Homo sapiens (Human), UniProt P22413)", "test": "Assay 2: inhibition of ENPP1 hydrolysis of 2′,3′-cGAMP (AMP-Glo, […] enzyme)", "details": "Assay 2 (KI), inhibition of ENPP1 hydrolysis of 2′,3′-cGAMP; no unit in Table 18 (Table 17 legend for this assay uses nM)", "units": {"Ki": "nM"}}
{"smiles": "COc1ccc2c(-c3ccc4c(c3)CN(S(C)(=N)=O)CC4)ccnc2n1", "note": "(stereo not drawn) [Compound 163, imino[7-(7-methoxy-1,8-naphthyridin-4-yl)-1,2,3,4-tetrahydroisoquinolin-2-yl]methyl-λ^6-sulfanone]", "Ki": 21}
{"smiles": "COc1cc2ncnc(OCC3CCN(S(C)(=N)=O)CC3)c2cc1OC", "note": "(stereo not drawn) [Compound 164, (4-{[(6,7-dimethoxyquinazolin-4-yl)oxy]methyl}piperidin-1-yl)(imino)methyl-λ^6-sulfanone]", "Ki": 97}
{"smiles": "COc1ccc2c(Oc3ccc(S(C)(=N)=O)cc3)ncnc2c1", "note": "(stereo not drawn) [Compound 167, imino({4-[(7-methoxyquinazolin-4-yl)oxy]phenyl})methyl-λ^6-sulfanone]", "Ki": 7.9}
{"smiles": "COc1cc2ncnc(OCC3CCS(=N)(=O)CC3)c2cc1OC", "note": "(stereo not drawn) [Compound 171, 4-{[(6,7-dimethoxyquinazolin-4-yl)oxy]methyl}-1-imino-1λ^6-thian-1-one]", "Ki": 49}
{"smiles": "COc1ccc2c(OCc3cncc(S(C)(=N)=O)c3)ccnc2c1", "note": "(stereo not drawn) [Compound 172, imino(5-{[(7-methoxyquinolin-4-yl)oxy]methyl}pyridin-3-yl)methyl-λ^6-sulfanone]", "Ki": 11}
{"smiles": "COc1ccc2c(O[C@H](C)c3cccc(S(C)(=N)=O)c3)ccnc2c1", "note": "(stereo partly drawn) [Compound 178, imino({3-[(1R)-1-[(7-methoxyquinolin-4-yl)oxy]ethyl]phenyl})methyl-λ^6-sulfanone]", "Ki": 2.6}
{"smiles": "COc1cccc2c(N3CCC(CS(C)(=N)=O)CC3)ccnc12", "note": "(stereo not drawn) [Compound 180, imino({[1-(8-methoxyquinolin-4-yl)piperidin-4-yl]methyl})methyl-λ^6-sulfanone]", "Ki": 16}
{"smiles": "COc1cccc2c(N3CCC(CS(C)(=N)=O)CC3)cnnc12", "note": "(stereo not drawn) [Compound 182, imino({[1-(8-methoxycinnolin-4-yl)piperidin-4-yl]methyl})methyl-λ^6-sulfanone]", "Ki": 3.1}
{"smiles": "COc1cc(F)cc2c(N3CCC(CS(C)(=N)=O)CC3)ncnc12", "note": "(stereo not drawn) [Compound 183, {[1-(6-fluoro-8-methoxyquinazolin-4-yl)piperidin-4-yl]methyl}(imino)methyl-λ^6-sulfanone]", "Ki": 5.2}
{"smiles": "COc1cccc2c(N3CCC(O)(CS(C)(=N)=O)C4(CC4)C3)ncnc12", "note": "(stereo not drawn) [Compound 194, {[8-hydroxy-5-(8-methoxyquinazolin-4-yl)-5-azaspiro[2.5]octan-8-yl]methyl}(imino)methyl-λ^6-sulfanone]", "Ki": 40}
{"smiles": "CCS(=N)(=O)CC1(O)CCN(c2ncnc3c(OC)cccc23)CC1", "note": "(stereo not drawn) [Compound 195, ethyl({[4-hydroxy-1-(8-methoxyquinazolin-4-yl)piperidin-4-yl]methyl})imino-λ^6-sulfanone]", "Ki": 0.2}
{"target": "ENPP-1 ECD (Homo sapiens (Human), UniProt P22413)", "test": "Assay 2: inhibition of ENPP1 hydrolysis of 2′,3′-cGAMP (AMP-Glo, […] enzyme)", "details": "read-out: Assay 2 (KI); inhibition of ENPP1 hydrolysis of 2′,3′-cGAMP; no unit in Table 18 (Table 17 legend for this assay uses nM)", "units": {"Ki": "nM"}}
{"smiles": "COc1cc2nccc(OCc3cccc([S@@](C)(=N)=O)c3)c2cc1OC", "note": "[Compound 175b]", "Ki": 4.1}
{"smiles": "COc1ccc2c(OCc3cc(F)cc([S@@](C)(=N)=O)c3)ccnc2c1", "note": "[Compound 177a]", "Ki": 20}
{"smiles": "COc1ccc2c(O[C@H](C)c3cccc([S@](C)(=N)=O)c3)ccnc2c1", "note": "[Compound 178b]", "Ki": 34}
{"smiles": "COc1cccc2c(N3CCC(C[S@@](C)(=N)=O)CC3)c(C#N)cnc12", "note": "[Compound 179a]", "Ki": 9.1}
{"smiles": "COc1cc(F)cc2c(N3CCC(C[S@@](C)(=N)=O)CC3)ncnc12", "note": "[Compound 183a]", "Ki": 2.9}
{"smiles": "COc1cc(F)cc2c(N3CCC(CS(C)(=N)=O)CC3)ncnc12", "note": "(stereo not drawn) [Compound 183b]", "Ki": "> 150"}
{"smiles": "COc1cccc2c(N3CCC(O)(C[S@](C)(=N)=O)CC3)ncnc12", "note": "[Compound 185b]", "Ki": 2.8}
{"smiles": "COc1cccc2c(N3CCC(C[S@@](=N)(=O)C4CC4)CC3)c(C#N)cnc12", "note": "[Compound 189a]", "Ki": 8.8}
{"smiles": "COc1cc2nccc(NCc3cccc(S(C)(=N)=O)c3)c2cc1F", "note": "(stereo not drawn) [Compound 192, (3-{[(6-fluoro-7-methoxyquinolin-4-yl)amino]methyl}phenyl)(imino)methyl-λ^6-sulfanone]", "Ki": 0.58}
{"smiles": "COc1cccc2c(N3CCC(O)(C[S@@](=N)(=O)C4CC4)CC3)ncnc12", "note": "[Compound 193a]", "Ki": 54}
{"smiles": "CC[S@@](=N)(=O)CC1(O)CCN(c2ncnc3c(OC)cccc23)CC1", "note": "[Compound 195a]", "Ki": 0.052}
